For one assay, the system named is Cdc20. The conditions noted are these: cited from earlier work. The text has this:
This specificity raises the exciting possibility of activator-specific targeted protein degradation as a therapeutic application.

The target of another assay is T1, Cdh1 WD40 domain (yeast) (Saccharomyces cerevisiae, UniProt P53197).
T1 construct: the WD40 domains of yeast Cdh1 (aa 241–550; pNH144); 2xStrep-Tag II (N); made in house; host or cells: Sf9 insect cells (baculovirus)
T1 sequence (P53197 241-550): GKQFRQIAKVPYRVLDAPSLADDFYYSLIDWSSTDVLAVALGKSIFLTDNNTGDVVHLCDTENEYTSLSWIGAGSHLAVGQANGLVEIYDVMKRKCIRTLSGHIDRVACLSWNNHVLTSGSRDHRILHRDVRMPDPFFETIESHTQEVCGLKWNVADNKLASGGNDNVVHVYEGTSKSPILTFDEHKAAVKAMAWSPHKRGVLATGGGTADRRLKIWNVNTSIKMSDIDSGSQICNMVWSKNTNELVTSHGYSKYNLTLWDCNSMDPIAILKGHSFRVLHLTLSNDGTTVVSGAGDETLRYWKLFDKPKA
The assay is described as follows: Fluorescence anisotropy, 10 nM Cy5-labeled degron peptide, yeast Cdh1 WD40. Type of assay: binding. The text has this: To determine the affinities of APC/C degrons for their binding sites, we first used conventional equilibrium binding assays of degron peptide binding to the activator. We used the baculovirus system to produce the WD40 domain of Cdh1 from the budding yeast Saccharomyces cerevisiae and measured fluorescence anisotropy to assess the binding of fluorescently-tagged degron peptides at increasing activator concentrations. The WD40 domain of yeast Cdc20 could not be expressed and was not studied.
(§1) Activators were cloned into the pFastBac HT A vector, with an N-terminal 2xStrep-Tag II. For some experiments, we constructed vectors for expression of the WD40 domains of yeast Cdh1 (aa 241–550; pNH144), human Cdh1 (aa 165–484; pNH164), or human Cdc20 (aa 162–484; pNH188). For SMOR, a C-terminal GFP tag was added. Bacmid plasmids are listed in Supplementary Table 3. Plasmids were transformed into DH10Bac cells, and purified Bacmid was used to transfect Sf9 cells to generate P1 baculovirus, which was used to generate P2 virus. SF9 cells were infected with the P2 virus for 48 h. Flash-frozen pellets were lysed by sonication or high-pressure homogenization in lysis buffer B (50 mM Tris-HCl pH 8, 150 mM KCl, 0.5 mM EDTA, 1 mM DTT, 10% Glycerol, EDTA-free protease inhibitor tablet, 1 µg ml^−1 pepstatin A). After the lysate was applied to the StrepTrap column, the column was washed with wash buffer B (lysis buffer B lacking protease inhibitors) and eluted in the same buffer containing 2.5 mM desthiobiotin.
Fluorescent degron peptides carried a C-terminal Cy5 label (CPC Scientific) and are listed in Supplementary Table 4. For anisotropy experiments, 10 nM fluorescent peptide was mixed with various concentrations of purified Cdh1 WD40 in wash buffer B at room temperature for 1 min, which we determined was sufficient for the binding reaction to reach equilibrium. Fluorescence was measured on a K2 Multifrequency Fluorometer at 25 °C. All Cy5-labeled peptides were excited with polarized light at 635 nm and emission was detected using a 700/75 nm bandpass filter (ET series, Chroma). […] Data were fitted to one-site equilibrium binding using GraphPad Prism version 8.4 to determine KD. Results were the same when peptide binding was measured in the buffer used in SMOR assays (buffer C, below).
In general terms: In fluorescence polarisation assays a small probe gives low polarisation when free and higher when bound to something large.

In the next assay the target is T2, Cdh1^WD40 (Saccharomyces cerevisiae, UniProt P53197).
T2 construct: the WD40 domains of yeast Cdh1 (aa 241–550; pNH144); made in house; host or cells: Sf9 insect cells (baculovirus)
T2 sequence (P53197 241-550): T1 sequence (P53197 241-550)
The assay is described as follows: SMOR assay (single-molecule off-rate, TIRF), yeast Cdh1^WD40. The format is binding. On the procedure: as §1
(§2) For all SMOR experiments, 24 × 50 mm high precision glass coverslips (Bioscience Tools) and drilled microscope slides were passivated with a combination of PEG and PEG-biotin (coverslips) or PEG only (slides) following a previously published protocol for SiMPull[31]. Reaction chambers (~20 µl) were created using double-sided tape and epoxy. Protein was immobilized on the surface with 0.2 mg ml^−1 NeutrAvidin in buffer C (20 mM HEPES pH 7.5, 150 mM KCl, 10% glycerol, 0.05% Tween-20, 1 mM DTT). Excess NeutrAvidin was washed away and incubated with either biotin-conjugated mouse monoclonal anti-Strep-Tag II antibody (LSBio, Cat. No. LS-C203632-100) or biotin-conjugated rabbit polyclonal anti-GFP antibody (Rockland, Cat. No. 600-406-215) diluted in buffer C + BSA (0.1 mg ml^−1; Molecular Biology Grade Bovine Serum Albumin). Activator WD40 and activated APC/C (typically 50 µl containing about 65 ng APC/C, of which only a small fraction is immobilized on the glass) were immobilized using anti-Strep-Tag II, while APC/C alone was immobilized with anti-GFP. SMOR results were similar when performed in the buffer (wash buffer B) used in polarization anisotropy.
(§3) To capture dynamic protein–protein interactions, dye-labeled substrate diluted in buffer C + BSA was added to the chamber containing immobilized proteins. Interactions were imaged by TIRF microscopy as described below. For optimal signal-to-noise ratio, peptide concentration was no greater than 1 nM. Protein substrates included Hsl1 aa 667–872 and a C-terminal HaloTag followed by a TAP tag, and were produced by translation in rabbit reticulocyte lysates using TnT Quick Coupled Transcription/Translation System (Promega) (see Supplementary Table 5 for plasmids). Protein was purified with magnetic IgG beads and labeled on the bead with JF549 or JF646 dye so that unbound dye could be washed away. Purified dye-labeled protein was then cleaved from the beads using TEV protease. Before adding substrate to the reaction chamber, oxygen scavenging reagents were added (10 nM protocatechuate-3,4-dioxygenase, 2.5 mM protocatechuic acid, and 1 mM Trolox)[41]. A detailed description of the SMOR analysis pipeline is found in Supplementary Note 1.
(§4) Microscopy was performed with a Nikon Eclipse TE2000-E with Perfect Focus with a 100 × 1.49na oil, Apo TIRF DIC N2, 0.13-0.2, WD0.12 objective. Movies were recorded using the Andor iXon DU-897E-CSO. For visualizing GFP-tagged protein, a 491 nm laser was used with an ET525/50 (Chroma) filter for emission. For visualizing JF549-labeled substrate, a 561 nm laser was used with an ET595/50 (Chroma) filter for emission. For visualizing all Cy5-labeled peptides and JF646-labeled substrates, a 640 nm laser was used with an ET685/70 filter (Chroma) for emission. […]

Another assay deals with T3, hCdh1^WD40 (Homo sapiens, UniProt Q9UM11).
T3 construct: human Cdh1 (aa 165–484; pNH164); made in house; host or cells: Sf9 insect cells (baculovirus)
T3 sequence (Q9UM11 165-484): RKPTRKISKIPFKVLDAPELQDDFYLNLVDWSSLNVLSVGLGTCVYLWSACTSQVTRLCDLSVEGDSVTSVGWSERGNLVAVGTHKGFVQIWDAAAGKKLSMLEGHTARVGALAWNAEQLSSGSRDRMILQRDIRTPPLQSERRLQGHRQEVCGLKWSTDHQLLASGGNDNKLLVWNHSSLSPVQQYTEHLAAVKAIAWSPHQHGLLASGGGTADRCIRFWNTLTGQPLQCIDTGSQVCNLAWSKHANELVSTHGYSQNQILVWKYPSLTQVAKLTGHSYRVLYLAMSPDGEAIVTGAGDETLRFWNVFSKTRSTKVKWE
Put plainly: SMOR assay, human Cdh1 WD40. Type of assay: binding. The conditions noted are these: human Cdh1, D-box binding; read-out: inferred kon. On the procedure: as §1, §2, §3, §4

For a further assay, the target named is T4, APC/C^apo (Saccharomyces cerevisiae, UniProt P38042+P53068).
T4 construct: APC/C was purified from yeast cells; made in house; host or cells: S. cerevisiae W303 strain NHY13 (Cdc16-TAP, Apc1-GFP, cdh1 deleted)
Put plainly: SMOR assay, yeast APC/C^apo (no activator). Type of assay: binding. On the procedure:
Yeast strains were derivatives of W303 and are listed in Supplementary Table 2. For APC/C purification, we used a strain carrying Cdc16-TAP and lacking Cdh1 (DOM1126); in most experiments, the strain also carried Apc1-GFP (NHY13). Yeast were grown in YPD media to OD600 = 0.8, collected and flash-frozen. Cells were lysed by bead beating in lysis buffer A (50 mM HEPES pH 7.5, 150 mM KCl, 10% glycerol, 0.2% Triton X-100, 63 µM B-glycerophosphate, 48 µM sodium fluoride, 1 µg ml^−1 pepstatin A, 1 µg ml^−1 leupeptin, 1 µg ml^−1 aprotinin, 1 mM PMSF, 1 mM DTT, 0.5 mM EDTA) and APC/C was purified using magnetic IgG beads. The beads were washed using wash buffer A (20 mM HEPES pH 7.5, 150 mM KCl, 10% Glycerol, 0.05% Triton X-100). After incubation with purified Cdh1 or Cdc20, the APC/C was cleaved off the beads with TEV protease in wash buffer A with 0.05% Tween-20 (for single-molecule studies) or 0.05% Triton X-100 (for ensemble assays such as ubiquitylation) and used immediately.
as §2, §3
Microscopy was performed with a Nikon Eclipse TE2000-E with Perfect Focus with a 100 × 1.49na oil, Apo TIRF DIC N2, 0.13-0.2, WD0.12 objective. Movies were recorded using the Andor iXon DU-897E-CSO. For visualizing GFP-tagged protein, a 491 nm laser was used with an ET525/50 (Chroma) filter for emission. For visualizing JF549-labeled substrate, a 561 nm laser was used with an ET595/50 (Chroma) filter for emission. For visualizing all Cy5-labeled peptides and JF646-labeled substrates, a 640 nm laser was used with an ET685/70 filter (Chroma) for emission. Initially, for each substrate tested, we acquired movies at multiple intervals to deduce the optimal interval to decrease bleaching. µManager version 2.0 was used to control the microscope and record time-lapse movies.

Where [1] appears, read: mean of the listed replicates, source data of Fig. 1a (there μM), read-out: Mean Kd.
Setting [2] is: replicate 2021-11-10, source data of Fig. 1a (there μM), read-out: Kd.
Where [3] appears, read: replicate 2019-07-08, source data of Fig. 1a (there μM), read-out: Kd.

Where two headings read alike, the source gives them in different places. Where a SMILES comes first, the peptide text is derived from it.

`Cc1ncc([N+](=O)[O-])n1CCOC(=O)NC(Nc1ncccn1)C(Cl)(Cl)Cl` (centres unmarked) [Apcin]: in the assay on Cdc20, the “activator specificity (in words)” value is given as “Cdc20 specificity”.

Regarding `CC[C@H](C)[C@H](NC(=O)[C@H](CC(=O)O)NC(=O)[C@H](CO)NC(=O)[C@H](CC(C)C)NC(=O)[C@H](C)NC(=O)[C@H](C)NC(=O)[C@H](CCCNC(=N)N)NC(=O)[C@H](CCCCN)NC(=O)[C@@H]1CCCN1C(=O)[C@H](CCCCN)NC(=O)[C@H](CCC(N)=O)NC(=O)[C@@H](N)CCC(=O)O)C(=O)N[C@H](C(=O)N[C@@H](CC(N)=O)C(=O)N[C@@H](CO)C(=O)N[C@@H](Cc1ccccc1)C(=O)N[C@@H](CC(N)=O)C(=O)N[C@@H](CCCCN)C(=O)N[C@@H](CCSC)C(=O)N[C@@H](CC(N)=O)C(=O)N[C@@H](CCCCN)C(=O)O)[C@@H](C)O` [Hsl1 D box] (H-EQKPKRAALSDITNSFNKMNK-OH), the Kd (in general, the free concentration of one partner at which half of the binding sites on the other are occupied at equilibrium, for simple one-to-one binding) at Cdh1 WD40 domain (yeast) (setting [1]) turned out to be 3.48 µM. In addition, the kon (in general, a measure of how fast the partners come together) was 800000 M⁻¹ s⁻¹ at Cdh1^WD40 (inferred from koff and anisotropy KD, yeast Cdh1, read-out: association rate constant kon); 100000 M⁻¹ s⁻¹ at hCdh1^WD40. Besides, the koff (as a rule, a measure of how fast the partners let go of each other) at Cdh1^WD40 (reciprocal of mean dwell time, read-out: dissociation rate constant koff) stood at 2.8 s⁻¹.

Take “(Cy5)-SLIFDAFNQIR [Cdh1 IR, Cy5-labeled yeast Cdh1 C-terminal IR peptide]”: the “Dwell Time” value on APC/C^apo (Supplementary Table 1, replicate 1 (movie listed first)) worked out at 0.616 ± 0.019 s; on APC/C^apo (Supplementary Table 1, replicate 2 (movie listed second)), 0.557 ± 0.011 s. Moreover, the mean dwell time on APC/C^apo (representative movie, ± SE, buffer C + BSA) worked out at 0.616 ± 0.02 s.

On to “EQKPKRAALSDITNSFNKMN-K(Cy5) [Hsl1 D box and dark KEN mutant, Cy5 Hsl1 D box peptide (10 nM) in presence of unlabeled mutated Hsl1 KEN (100 µM)]”, for which the Kd at Cdh1 WD40 domain (yeast) (setting [1]) is 2.86 µM; at Cdh1 WD40 domain (yeast) (setting [2]) it was 2.16 µM; on Cdh1 WD40 domain (yeast) (replicate 2021-11-15, source data of Fig. 1a (there μM), read-out: Kd) it was 3.56 µM; on Cdh1 WD40 domain (yeast) (representative single experiment, Fig. 1c, dark = unlabeled peptide 100 µM, read-out: KD), 3.6 µM.

Consider “EQKPKRAALSDITNSFNKMN-K(Cy5) [Hsl1 D box and dark KEN, Cy5 Hsl1 D box peptide (10 nM) in presence of unlabeled Hsl1 KEN (100 µM)]”, for which the Kd at Cdh1 WD40 domain (yeast) (setting [1]) turned out to be 1.12 µM; on Cdh1 WD40 domain (yeast) (setting [2]) it was 1.04 µM.

On to “GVSTNKENEGPEYPTKIE-K(Cy5) [Hsl1 KEN and dark D box mutant, Cy5 Hsl1 KEN peptide (10 nM) in presence of unlabeled mutated Hsl1 D box (100 µM)]”, for which the Kd amounted to 10.9 µM at Cdh1 WD40 domain (yeast) (setting [1]), 6.35 µM at Cdh1 WD40 domain (yeast) (setting [3]) and 15.5 µM at Cdh1 WD40 domain (yeast) (setting [2]).

Consider “GVSTNKENEGPEYPTKIE-K(Cy5) [Hsl1 KEN and dark D box, Cy5 Hsl1 KEN peptide (10 nM) in presence of unlabeled Hsl1 D box (100 µM)]”, for which the Kd at Cdh1 WD40 domain (yeast) (setting [1]) worked out at 3.37 µM; on Cdh1 WD40 domain (yeast) (setting [3]), 3.41 µM; on Cdh1 WD40 domain (yeast) (setting [2]), 3.34 µM.

These data come from PMC8764033, “Single-molecule analysis of specificity and multivalency in binding of short linear substrate motifs to the APC/C” (Nature Communications, 2022).
